Values of other authors, collected in US20190321427A1, “Compositions to Treat Anal Fissures” (G&S Laboratories, Inc., priority 2018, published 2019).
Read-outs that look alike come from different tables or passages of the source.

Test system: anal fissures

Compound	healing rates (anal fissure, literature (Poh, 2010))	common side effect (topical treatment of anal fissure)	healing rates (in vivo)
O=[N+]([O-])OCC(CO[N+](=O)[O-])O[N+](=O)[O-] [nitroglycerin]	40-70%	headache	–
botulinum toxin	–	–	30-96%
